# Measured values taken from ChEMBL document CHEMBL1123597, “Synthesis and structure-activity relationships of pyrazolo[4,3-d]pyrimidin-7-ones as adenosine receptor antagonists” (J Med Chem, 1987).
# Biological target: T1, Adenosine receptor A1 (Rattus norvegicus) (UniProt P25099)
# T1 sequence (whole entry): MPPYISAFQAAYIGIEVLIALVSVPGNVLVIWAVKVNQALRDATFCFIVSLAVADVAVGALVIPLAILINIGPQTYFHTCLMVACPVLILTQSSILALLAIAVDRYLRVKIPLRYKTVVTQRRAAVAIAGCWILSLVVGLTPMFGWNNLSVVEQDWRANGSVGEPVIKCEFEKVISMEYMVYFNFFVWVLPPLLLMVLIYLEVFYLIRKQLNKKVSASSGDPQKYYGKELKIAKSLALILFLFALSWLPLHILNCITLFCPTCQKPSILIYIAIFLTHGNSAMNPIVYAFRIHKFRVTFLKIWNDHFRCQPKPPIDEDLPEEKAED
# Details: Brain; Membrane
# Description: Binding affinity against adenosine A1 receptor in rat brain membrane preparations using N6-[3H]cyclohexyladenosine as radioligand, PCY = log (100000/IC50).
# 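Throughout, for PCY: radioligand displacement of N6-[3H]cyclohexyladenosine binding in rat brain membranes, PCY computed as the log of 100000 divided by IC50.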
row,Compound,PCY
1,Cc1nn(C)c2c(O)nc(-c3ccc([N+](=O)[O-])cc3)nc12,2.1
2,Cn1c(=O)c2nc(-c3ccc(Cl)cc3N)[nH]c2n(C)c1=O,5.4
3,COc1ccc(-c2nc(O)c3c(n2)c(C)nn3C)cc1OC,1.7
4,Cn1c(=O)c2nc(-c3ccc(N)cc3)[nH]c2n(C)c1=O,4.7
5,Cn1c(=O)c2nc(-c3ccc(S(=O)(=O)O)cc3)[nH]c2n(C)c1=O,3.6
6,COc1cccc(-c2nc(O)c3c(n2)c(C)nn3C)c1,1.8
7,Cc1nn(C)c2c(O)nc(-c3ccc(Cl)cc3N)nc12,2.5
8,Cc1ccc(-c2nc(O)c3c(n2)c(C)nn3C)cc1,2.4
9,Cn1c(=O)c2nc(Cc3ccccc3)[nH]c2n(C)c1=O,1.8
10,CCn1c(=O)n(C)c(=O)c2[nH]c(-c3ccccc3)nc21,4.5
11,Cn1c(=O)c2nc(-c3ccccc3N)[nH]c2n(C)c1=O,4.3
12,Cc1nn(C)c2c(O)nc(-c3ccc(S(=O)(=O)O)cc3)nc12,1.6
13,Cc1nn(C)c2c(O)nc(-c3cccnc3)nc12,1.5
14,COc1ccc(-c2nc(O)c3c(n2)c(C)nn3C)c(OC)c1,1.3
15,Cc1nn(C)c2c(O)nc(-c3ccc(Cl)cc3)nc12,2.4
16,Cc1nn(C)c2c(O)nc(-c3cccc([N+](=O)[O-])c3)nc12,1.9

row,Compound,PCY
1,Cn1c(=O)c2nc(-c3ccc(Cl)c(Cl)c3)[nH]c2n(C)c1=O,4.3
2,Cc1nn(C)c2c(O)nc(-c3ccc(N)cc3)nc12,2.4
3,COc1ccccc1-c1nc(O)c2c(n1)c(C)nn2C,1
4,Cc1nn(C)c2c(O)nc(-c3cccc(N)c3)nc12,1.8
5,COc1cccc(-c2nc3c(=O)n(C)c(=O)n(C)c3[nH]2)c1,3.7
6,CCn1nc(C)c2nc(-c3ccccc3)nc(O)c21,2.2
7,Cc1nn(C)c2c(O)nc(-c3ccncc3)nc12,2
8,Cn1c(=O)c2nc(-c3cccnc3)[nH]c2n(C)c1=O,3.3
9,COc1ccccc1-c1nc2c(=O)n(C)c(=O)n(C)c2[nH]1,2.5
10,Cc1nn(C)c2c(O)nc(-c3ccccc3N)nc12,2.6
11,COc1cc(OC)cc(-c2nc(O)c3c(n2)c(C)nn3C)c1,1.2
12,Cc1nn(C)c2c(O)nc(-c3ccc(Cl)c(Cl)c3)nc12,2
13,Cc1nn(C)c2c(O)ncnc12,0.7
14,Cc1nn(C)c2c(O)nc(-c3ccccc3)nc12,2
15,Cc1nn(C)c2c(O)nc(Cc3ccccc3)nc12,1.9

# Biological target: T2, Adenosine receptor A1 (Rattus norvegicus, UniProt P25099)
# T2 sequence (P25099 whole entry): T1 sequence (whole entry)
# Assay: Binding affinity against adenosine A1 receptor in rat brain membrane preparations using N6-[3H]cyclohexyladenosine as a radioligand
# Assay type: cell membranes
# Details: not given
row,Compound,IC50 [nM]
1,Cc1nn(C)c2c(=O)[nH]cnc12,20100
2,CCn1c(=O)n(C)c(=O)c2[nH]c(-c3ccccc3)nc21,3
3,Cn1c(=O)c2[nH]c(Cc3ccccc3)nc2n(C)c1=O,1500
4,Cc1ccc(-c2nc3c([nH]2)c(=O)n(C)c(=O)n3C)cc1,0.8
5,Cn1c(=O)c2nc(-c3ccccc3N)[nH]c2n(C)c1=O,5.5
6,Cc1nn(C)c2c(O)nc(-c3ccc(S(=O)(=O)O)cc3)nc12,2300
7,Cn1c(=O)c2nc(-c3ccc(Cl)c(Cl)c3)[nH]c2n(C)c1=O,5
8,Cn1c(=O)c2[nH]c(-c3ccc([N+](=O)[O-])cc3)nc2n(C)c1=O,8
9,CCn1nc(C)c2nc(-c3ccncc3)[nH]c(=O)c21,250
10,Cc1nn(C)c2c(=O)[nH]c(Cc3ccccc3)nc12,1310
11,CCn1nc(C)c2nc(Cc3ccccc3)nc(O)c21,820
12,Cc1ccc(-c2nc3c(C)nn(C)c3c(=O)[nH]2)cc1,400
13,COc1cc(OC)cc(-c2nc3c([nH]2)c(=O)n(C)c(=O)n3C)c1,500
14,Cc1nn(C)c2c(=O)[nH]c(-c3ccc(N)cc3)nc12,380
15,COc1ccc(-c2nc3c([nH]2)c(=O)n(C)c(=O)n3C)c(OC)c1,200
16,COc1ccccc1-c1nc2c([nH]1)c(=O)n(C)c(=O)n2C,350
17,Cc1nn(C)c2c(=O)[nH]c(-c3ccc(S(=O)(=O)NCCN(C)C)cc3)nc12,68
18,Cn1c(=O)c2[nH]c(-c3ccc(Cl)cc3N)nc2n(C)c1=O,0.4
19,Cn1c(=O)c2[nH]c(-c3cccnc3)nc2n(C)c1=O,50
20,Cn1c(=O)c2nc(-c3cccc([N+](=O)[O-])c3)[nH]c2n(C)c1=O,50
21,Cc1nn(C)c2c(=O)[nH]c(-c3ccc(Cl)cc3N)nc12,310
22,COc1cccc(-c2nc3c(C)nn(C)c3c(=O)[nH]2)c1,1470
23,Cc1nn(C)c2c(O)nc(-c3ccccc3N)nc12,230
24,Cn1c(=O)c2[nH]c(-c3cccc(N)c3)nc2n(C)c1=O,10
25,Cn1c(=O)c2[nH]c(-c3ccc(Cl)cc3)nc2n(C)c1=O,0.8
26,COc1cc(OC)cc(-c2nc(O)c3c(n2)c(C)nn3C)c1,7060
27,Cn1c(=O)c2[nH]c(-c3ccc(N)cc3)nc2n(C)c1=O,1.8
28,CC(Sc1nc(SC(C)C(N)=O)c2cnn(-c3ccccc3)c2n1)C(N)=O (centres undefined),1030
